What all share (format): cell-based
The test system of test [1] is Staphylococcus aureus. The test is described as follows: Antibiotic susceptibility testing (colour of media), spiked milk. The following applies: bacteria sample 5c. The procedure:
Tables 36 to 38 which follow show further examples of antibiotic susceptibility testing performed in accordance with the present invention. Table 36, antibiotic susceptibility testing of Staphylococcus aureus in Mueller Hinton and Tryptic Soy Broth at pre-incubation and at between 15-24 h. Tables 37 and 38, antimicrobial susceptibility testing of Streptococcus uberis and E. coli with the addition of gram negative specific antibiotic aztreonam. Tables 38 to 49 show further examples of antibiotic susceptibility testing and the outcomes are aligned with the described inventions.

In test [2] the test system is Streptococcus uberis. The test is described as follows: Group D Streptococci identification, esculin/ferric citrate in TSB (blackening = growth), bacteria in milk. The following applies: TSB containing 0.5% esculin and 0.25% ferric citrate + 80 uL spiked milk; 100 ug/ml aztreonam and/or 0.5 mg/mL phenol red. The procedure: By way of illustration, the same experiment was conducted as above, only this time using clinical milk samples obtained from a bovine animal suspect of being infected with mastitis.
However, Applicant has discovered that increased amounts of esculin and ferric citrate may be used in milk derived clinical samples. For example, at concentrations of at least 2% esculin and 1% ferric citrate, the growth of Streptococcus uberis is not inhibited.
Note, in the experiments above, the clinical sample tested was milk obtained from a bovine animal suspected of being infected by mastitis. If a non-milk clinical sample were to be tested, then inclusion of a stabilizing agent (e.g. milk in the form of a liquid or powder) would be required in order to suppress the growth inhibitory effect of esculin and ferric citrate at the higher concentrations used according to this invention.
Applicant further discovered that TSB containing 0.5% esculin and 0.25% ferric citrate and 80 uL of spiked Streptococcus uberis milk sample which also contained 100 ug/ml aztreonam concentration (antibiotic which has activity against many gram-bacteria such as E. coli) and/or in combination with 0.5 mg/mL phenol red led to easy detectable colour changes. No inhibition of Streptococcus uberis due to phenol red or aztreonam was detected.

The subject of test [3] is Streptococcus uberis. Put plainly: Colour change of enrichment media with pH indicator, bacteria in milk (stabilizing agent). The following applies: excess concentration (Table 4e, 0.04%) in presence of milk; all inoculums investigated. The source says:
The present invention overcomes these limitations through inclusion of one or more stabilizing agents which suppresses the potential inhibitory effect of the colour based pH indicator. As such, increased concentrations of the colour based pH indicator (e.g. phenol red) may be used in the test, thereby achieving stability in the colour change associated with bacteria growth. An example of a stabilizing agent according to the present invention is milk.
In this Example, liquid culture media is used which allows early and easy identification of susceptible antimicrobials to support decision of antimicrobial selection to treat bacterial infections. It also allows the detection of bacteria such as gram+ and/or gram-bacteria in clinical samples are present and/or allows estimation of the inoculum from kinetic analyses of colour change. The base of this liquid culture medium is a general purpose liquid enrichment medium for example tryptic soy broth (Soybean-Casein Digest Medium) but could also be Mueller Hinton broth. This TSB media has excess concentration of a pH indicator such as phenol red and/or bromocresol purple and milk. […] Colorimetric analyses can performed by the naked eye or by an optical reader for example via CCD camera chip or photo diode. […]

The mark [4] stands for this setting: T = 0 hours (pre incubation), drug 0.01 μg/ml, Mueller Hinton (70 ul composition 26).
The mark [5] stands for this setting: T = 0 hours (pre incubation), drug 0.05 μg/ml, Mueller Hinton (70 ul composition 26).
Setting [6] is: T = 0 hours (pre incubation), drug 0.1 μg/ml, Mueller Hinton (70 ul composition 26).
Where [7] appears, read: T = 0 hours (pre incubation), drug 0.5 μg/ml, Mueller Hinton (70 ul composition 26).
The mark [8] stands for this setting: T = 0 hours (pre incubation), drug 1 μg/ml, Mueller Hinton (70 ul composition 26).
Where [9] appears, read: T = 0 hours (pre incubation), drug 5 μg/ml, Mueller Hinton (70 ul composition 26).
The mark [10] stands for this setting: T = 0 hours (pre incubation), drug 10 μg/ml, Mueller Hinton (70 ul composition 26).
Where [11] appears, read: T = 0 hours (pre incubation), drug 50 μg/ml, Mueller Hinton (70 ul composition 26).
Where [12] appears, read: T = 0 hours (pre incubation), drug 100 μg/ml, Mueller Hinton (70 ul composition 26).
Where [13] appears, read: T = 0 hours (pre incubation), drug 500 μg/ml, Mueller Hinton (70 ul composition 26).
Where [14] appears, read: T = 15-24 h at 35° C., drug 0.01 μg/ml, Mueller Hinton (70 ul composition 26).
The mark [15] stands for this setting: T = 15-24 h at 35° C., drug 0.05 μg/ml, Mueller Hinton (70 ul composition 26).
[16] abbreviates: T = 15-24 h at 35° C., drug 0.1 μg/ml, Mueller Hinton (70 ul composition 26).
Where [17] appears, read: T = 15-24 h at 35° C., drug 0.5 μg/ml, Mueller Hinton (70 ul composition 26).
Setting [18] is: T = 15-24 h at 35° C., drug 1 μg/ml, Mueller Hinton (70 ul composition 26).
Setting [19] is: T = 15-24 h at 35° C., drug 5 μg/ml, Mueller Hinton (70 ul composition 26).
Setting [20] is: T = 15-24 h at 35° C., drug 10 μg/ml, Mueller Hinton (70 ul composition 26).
Setting [21] is: T = 15-24 h at 35° C., drug 50 μg/ml, Mueller Hinton (70 ul composition 26).
The mark [22] stands for this setting: T = 15-24 h at 35° C., drug 100 μg/ml, Mueller Hinton (70 ul composition 26).
Where [23] appears, read: T = 15-24 h at 35° C., drug 500 μg/ml, Mueller Hinton (70 ul composition 26).

The record followed here is US10829796B2, “Bacteria identification and antimicrobial susceptibility test” (priority 2015, dated 2020).

In the case of `NC[C@@H]1O[C@H](O[C@H]2[C@@H](O)[C@H](O[C@@H]3[C@@H](O)[C@H](N)C[C@H](N)[C@H]3O[C@H]3O[C@H](CN)[C@@H](O)[C@H](O)[C@H]3N)O[C@@H]2CO)[C@H](N)[C@@H](O)[C@@H]1O` [Neomycin], the Colour of media result in test [1] (setting [4]), in test [1] (setting [5]), in test [1] (setting [6]), in test [1] (setting [7]), in test [1] (setting [8]) and in test [1] (setting [9]) was “red” each time. The Colour of media entry is “red” in test [1] (setting [10]); “red” in test [1] (setting [11]); “red” in test [1] (setting [12]); “red” in test [1] (setting [13]); “yellow” in test [1] (setting [14]); “yellow” in test [1] (setting [15]). The Colour of media entry in test [1] (setting [16]) is on record as “yellow”; in test [1] (setting [17]) it was “yellow”; in test [1] (setting [18]), “yellow”; in test [1] (setting [19]), “red”; in test [1] (setting [20]) it was “red”; in test [1] (setting [21]) it was “red”. Besides, the Colour of media result in test [1] (setting [22]) and in test [1] (setting [23]) was “red” each time.

Turning to `CN[C@@H]1[C@H](O[C@H]2[C@H](O[C@H]3[C@H](O)[C@@H](O)[C@H](NC(=N)N)[C@@H](O)[C@@H]3NC(=N)N)O[C@@H](C)[C@]2(O)CO)O[C@@H](CO)[C@H](O)[C@H]1O` [Dihydrostreptomycin], the Colour of media entry in test [1] (T = 0 hours (pre incubation), drug 0.01 μg/ml, Tryptic Soy (70 ul composition 2c)) is given as “red”; in test [1] (T = 0 hours (pre incubation), drug 0.05 μg/ml, Tryptic Soy (70 ul composition 2c)), “red”; in test [1] (T = 0 hours (pre incubation), drug 0.1 μg/ml, Tryptic Soy (70 ul composition 2c)), “red”; in test [1] (T = 0 hours (pre incubation), drug 0.5 μg/ml, Tryptic Soy (70 ul composition 2c)), “red”; in test [1] (T = 0 hours (pre incubation), drug 1 μg/ml, Tryptic Soy (70 ul composition 2c)), “red”; in test [1] (T = 0 hours (pre incubation), drug 5 μg/ml, Tryptic Soy (70 ul composition 2c)), “red”. Further, the Colour of media entry is listed as “red” in test [1] (T = 0 hours (pre incubation), drug 10 μg/ml, Tryptic Soy (70 ul composition 2c)); “red” in test [1] (T = 0 hours (pre incubation), drug 50 μg/ml, Tryptic Soy (70 ul composition 2c)); “red” in test [1] (T = 0 hours (pre incubation), drug 100 μg/ml, Tryptic Soy (70 ul composition 2c)); “red” in test [1] (T = 0 hours (pre incubation), drug 500 μg/ml, Tryptic Soy (70 ul composition 2c)); “yellow” in test [1] (T = 15-24 h at 35° C., drug 0.01 μg/ml, Tryptic Soy (70 ul composition 2c)); “yellow” in test [1] (T = 15-24 h at 35° C., drug 0.05 μg/ml, Tryptic Soy (70 ul composition 2c)). Besides, the Colour of media result is “yellow” in test [1] (T = 15-24 h at 35° C., drug 0.1 μg/ml, Tryptic Soy (70 ul composition 2c)); “yellow” in test [1] (T = 15-24 h at 35° C., drug 0.5 μg/ml, Tryptic Soy (70 ul composition 2c)); “yellow” in test [1] (T = 15-24 h at 35° C., drug 1 μg/ml, Tryptic Soy (70 ul composition 2c)); “yellow” in test [1] (T = 15-24 h at 35° C., drug 5 μg/ml, Tryptic Soy (70 ul composition 2c)); “yellow” in test [1] (T = 15-24 h at 35° C., drug 10 μg/ml, Tryptic Soy (70 ul composition 2c)); “yellow” in test [1] (T = 15-24 h at 35° C., drug 50 μg/ml, Tryptic Soy (70 ul composition 2c)). Further, the Colour of media entry is listed as “red” in test [1] (T = 15-24 h at 35° C., drug 100 μg/ml, Tryptic Soy (70 ul composition 2c)) and “red” in test [1] (T = 15-24 h at 35° C., drug 500 μg/ml, Tryptic Soy (70 ul composition 2c)).

`O=S1(=O)OC(c2ccc(O)cc2)(c2ccc(O)cc2)c2ccccc21` [phenol red]: the “Inhibition of Streptococcus uberis” value in test [2] is given as “No inhibition”.

Consider `Cc1cc(C2(c3cc(C)c(O)c(Br)c3)OS(=O)(=O)c3ccccc32)cc(Br)c1O` [bromocresol purple], for which the Growth inhibition entry in test [3] is listed as “does not inhibit growth”.

Regarding `CC1=C(C(=O)O)N2C(=O)[C@@H](NC(=O)[C@H](N)c3ccccc3)[C@H]2SC1` [Cephalexin], the Colour of media result in test [1] (setting [4]), in test [1] (setting [5]), in test [1] (setting [6]), in test [1] (setting [7]), in test [1] (setting [8]) and in test [1] (setting [9]) was “red” each time. Besides, the Colour of media entry in test [1] (setting [10]) was “red”; in test [1] (setting [11]), “red”; in test [1] (setting [12]) it was “red”; in test [1] (setting [13]), “red”; in test [1] (setting [14]), “yellow”; in test [1] (setting [15]), “yellow”. Also, the Colour of media result in test [1] (setting [16]) is given as “yellow”; in test [1] (setting [17]), “yellow”; in test [1] (setting [18]), “red”; in test [1] (setting [19]), “red”; in test [1] (setting [20]), “red”; in test [1] (setting [21]), “red”. Moreover, the Colour of media result in test [1] (setting [22]) and in test [1] (setting [23]) was “red” each time.
